Data as given in patent US20210386367A1, “DEVICES AND SYSTEMS FOR GASTROINTESTINAL MICROBIOME DETECTION AND MANIPULATION” (Progenity, Inc., priority 2018, published 2021).
In brackets after ≈: the same amount, converted by molar mass. Entries after “also recorded” stand apart in the source; their conditions may differ. Read-outs that look alike come from different tables or passages of the source.

Legend:
Veillonella spp. = test: Agar dilution MIC, 30 clinical isolates; assay type: cell-based; conditions: for Mode: modal MIC
Streptococcus spp. = test: Spontaneous mutation frequency assay; assay type: cell-based; conditions: for Spontaneous Mutation Frequency: selection at 4× and 8× MIC
Description: Initial values of the MIC were determined by agar dilution in accordance with guidelines from the Clinical and Laboratory Standards Institute (CLSI; (1) “Methods for Dilution Antimicrobial Susceptibility Tests for Bacteria That Grow Aerobically; Approved Standard; 11th ed.,” CLSI standard M07, 2018; (2) “Methods for Antimicrobial Susceptibility Testing of Anaerobic Bacteria; Approved Standard—Eighth Edition,” CLSI document M11-A8, 2012.).
The agar plates were prepared by mixing a ratio of 1.0 mL of concentrated drug to 49.0 mL of the appropriate molten (47° C.) agar; the drug-supplemented agar was mixed, poured into 15-by-150 mm petri dishes and allowed to solidify and dry at room temperature prior to inoculation. […] Each plate was allowed to cool at room temperature for at least 1 hr.
The isolates were streaked onto the appropriate agar medium and incubated for 20 hr (aerobes) or 48 hr (Bacteroides under anaerobic conditions). Using a sterile swab, several well-isolated colonies were removed and resuspended in sterile saline at a heavy cell density. Each plate was inoculated with 0.5 mL of the cell suspension (each test concentration was inoculated in duplicate). The target inoculum for each spontaneous mutation plate was 10^9-10 CFU. In addition, a portion of the inoculum from each isolate was enumerated by making dilutions, spreading on agar and counting colonies.
Once the inoculum was absorbed into the agar, the plates were incubated at 35° C. Aerobes were examined at 24 and 48 hr, and resulting colonies were counted. Bacteroides were incubated anaerobically for 48-72 hr in the anaerobe chamber and colonies were counted.
Colony counts from plates used to enumerate the initial inoculum density and from the resulting spontaneous mutation frequency test plates were determined. The inoculum size was calculated as CFU inoculated per plate. The spontaneous mutation frequency was calculated using the counts from duplicate spontaneous mutation assay test plates as follows:
If there were no colonies on the antibiotic selection plates, the spontaneous mutation frequency was reported as less than the frequency observed with one colony to indicate that the spontaneous mutation frequency was less than the limit of detection (one CFU). […] The mutation prevention concentration (MPC) was reported as the lowest concentration for which no mutants were selected.

[1] = tested on: E. coli spontaneous mutants; test: Broth microdilution MIC of spontaneous mutants; assay type: cell-based, Escherichia coli; conditions: for broth microdilution MIC of selected colonies relative to parent strain: colonies selected at 4× and 8× the MIC
How it was run: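 Spontaneous mutants from drug selection plates were tested by CLSI broth microdilution in MHB II with two-fold serial drug dilutions. Inoculum was about 5×10^5 CFU/mL, incubated aerobically at 35° C. for 18-20 hr. MIC was the lowest concentration inhibiting visible growth.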

[2] = tested on: Streptococcus spp. (S. pneumoniae ATCC 49619, S. pyogenes ATCC 49399, S. agalactiae ATCC 13813); test: Agar dilution MIC (spontaneous mutation study; strain in conditions); assay type: cell-based
S. pyogenes ATCC 49399 = test: Broth microdilution MIC (time-kill study); assay type: cell-based, Streptococcus pyogenes
Prevotella spp. = test: Agar dilution MIC, 30 clinical isolates; assay type: cell-based; conditions: for Mode: modal MIC
S. agalactiae ATCC 13813 = test: Time-kill assay; assay type: cell-based, Streptococcus agalactiae; conditions: 2×, 4×, 8× MIC; 2, 6, 24 hr
B. vulgatus ATCC 8482 = test: Time-kill assay; assay type: cell-based, Bacteroides vulgatus; conditions: 2×, 4×, 8× MIC; 2, 6, 24, 48 hr
[3] = 30 Veillonella spp. clinical isolates
[4] = 30 Prevotella spp. clinical isolates

C[C@@H](O)[C@H]1C(=O)N2C(C(=O)O)=C(S[C@@H]3CN[C@H](C(=O)N(C)C)C3)[C@H](C)[C@H]12 [meropenem]
isolates with intermediate resistance (Veillonella spp.): Twenty-three | relative activity among drugs tested (Veillonella spp.): most active drug evaluated; also recorded: most active agent | % I (Veillonella spp.; [3]): 23% | % S (Veillonella spp.; [3]): 77% | MIC50 (Veillonella spp.; [3]): 1 µg/mL (≈ 2.61 µM) | MIC90 (Veillonella spp.; [3]): 8 µg/mL (≈ 20.9 µM) | MIC range (Veillonella spp.; [3]): 0.12 to 8 µg/mL | MIC50 (Veillonella spp.; Veillonella, read-out: MIC50): 1 µg/mL (≈ 2.61 µM) | MIC90 (Veillonella spp.; Veillonella, read-out: MIC90): 8 µg/mL (≈ 20.9 µM) | Mode (Veillonella spp.; [3]): 0.12 µg/mL | colonies on selection plates (Streptococcus spp.): No Streptococcus spp. or Bacteroides spp. colonies were selected | Spontaneous Mutation Frequency (Streptococcus spp.): ≤ 9.52×10^−10 | MIC ([1]; Escherichia coli, ATCC25922, E. coli ATCC 25922, selected on rifaximin 4X MIC, Colony A): 0.008 µg/mL | MIC ([1]; Escherichia coli, ATCC25922, E. coli ATCC 25922, selected on rifaximin 4X MIC, Colony B): 0.008 µg/mL | MIC ([1]; Escherichia coli, ATCC25922, E. coli ATCC 25922, selected on rifaximin 8X MIC, Colony A): 0.008 µg/mL | MIC ([1]; Escherichia coli, ATCC25922, E. coli ATCC 25922 Parent (Table 52)): 0.03 µg/mL | MIC ([1]; Escherichia coli, ATCC35218, E. coli ATCC 35218, selected on rifaximin 4X MIC, Colony A): 0.015 µg/mL | MIC ([1]; Escherichia coli, ATCC35218, E. coli ATCC 35218, selected on rifaximin 4X MIC, Colony B): 0.015 µg/mL | MIC ([1]; Escherichia coli, ATCC35218, E. coli ATCC 35218, selected on rifaximin 8X MIC, Colony A): 0.015 µg/mL | MIC ([1]; Escherichia coli, ATCC35218, E. coli ATCC 35218, selected on rifaximin 8X MIC, Colony B): 0.015 µg/mL | MIC ([1]; Escherichia coli, ATCC35218, E. coli ATCC 35218 Parent (Table 52)): 0.015 µg/mL | MIC ([1]; Escherichia coli, E. coli MMX 1312, selected on ceftriaxone 4X MIC, Colony A): 0.015 µg/mL | MIC ([1]; Escherichia coli, E. coli MMX 1312, selected on ceftriaxone 4X MIC, Colony B): 0.015 µg/mL | MIC ([1]; Escherichia coli, E. coli MMX 1312, selected on ceftriaxone 4X MIC, Colony C): 0.03 µg/mL | MIC ([1]; Escherichia coli, E. coli MMX 1312, selected on ceftriaxone 8X MIC, Colony A): 0.015 µg/mL | MIC ([1]; Escherichia coli, E. coli MMX 1312, selected on ceftriaxone 8X MIC, Colony B): 0.03 µg/mL | MIC ([1]; Escherichia coli, E. coli MMX 1312, selected on ceftriaxone 8X MIC, Colony C): 0.03 µg/mL | MIC ([1]; Escherichia coli, E. coli MMX 1312, selected on rifaximin 4X MIC, Colony A): 0.008 µg/mL | MIC ([1]; Escherichia coli, E. coli MMX 1312, selected on rifaximin 4X MIC, Colony B): 0.008 µg/mL | MIC ([1]; Escherichia coli, E. coli MMX 1312, selected on rifaximin 8X MIC, Colony A): 0.015 µg/mL | MIC ([1]; Escherichia coli, E. coli MMX 1312, selected on rifaximin 8X MIC, Colony B): 0.015 µg/mL | MIC ([1]; Escherichia coli, E. coli MMX 1312 Parent): 0.015 µg/mL | MIC ([1]; Escherichia coli, E. coli MMX 1312 Parent (Table 49)): 0.015 µg/mL | MIC ([1]; Escherichia coli, E. coli MMX 1312 Parent (Table 52)): 0.015 µg/mL | MIC ([1]; Escherichia coli, E. coli MMX 1312 mutant selected on meropenem 4X MIC, colony A): 0.015 µg/mL | MIC ([1]; Escherichia coli, E. coli MMX 1312 mutant selected on meropenem 4X MIC, colony B): 0.015 µg/mL | MIC ([1]; Escherichia coli, E. coli MMX 1312 mutant selected on meropenem 4X MIC, colony C): 0.015 µg/mL | MIC ([1]; Escherichia coli, E. coli MMX 1312 mutant selected on meropenem 8X MIC, colony A): 0.015 µg/mL | MIC ([1]; Escherichia coli, E. coli MMX 1312 mutant selected on meropenem 8X MIC, colony B): 0.015 µg/mL | MIC ([1]; Escherichia coli, E. coli MMX 1312 mutant selected on meropenem 8X MIC, colony C): 0.015 µg/mL | broth microdilution MIC of selected colonies relative to parent strain [1]: consistent with that of the parent strain | MIC ([2]; Streptococcus agalactiae, S. agalactiae ATCC 13813, read-out: Agar MIC): 0.03 µg/mL (≈ 0.0782 µM) | MIC ([2]; Streptococcus pneumoniae, S. pneumoniae ATCC 49619, read-out: Agar MIC): 0.06 µg/mL (≈ 0.156 µM) | MIC ([2]; Streptococcus pyogenes, S. pyogenes ATCC 49399, read-out: Agar MIC): 0.008 µg/mL (≈ 0.0209 µM) | MIC ([2]; over evaluated Streptococcus spp. (range stated jointly with other groups), read-out: MIC values (agar dilution)): 0.008 to 0.12 µg/mL (≈ 0.0209 to 0.313 µM) | MIC (S. pyogenes ATCC 49399; S. pyogenes ATCC 49399): 0.004 µg/mL (≈ 0.0104 µM) | MIC (S. pyogenes ATCC 49399; Streptococcus pyogenes, ATCC49399, broth microdilution, read-out: MIC): 0.004 µg/mL (≈ 0.0104 µM) | MIC range (Prevotella spp.): ≤0.008 to 0.3 µg/mL | isolates susceptible (Prevotella spp.): All were susceptible | relative activity among drugs tested (Prevotella spp.): most active drug tested; also recorded: most active agent | % S (Prevotella spp.; [4]): 100% | MIC50 (Prevotella spp.; [4]): 0.06 µg/mL (≈ 0.156 µM) | MIC90 (Prevotella spp.; [4]): 0.12 µg/mL (≈ 0.313 µM) | MIC range (Prevotella spp.; [4]): ≤0.008 to 0.3 µg/mL | MIC50 (Prevotella spp.; Prevotella, read-out: MIC50): 0.06 µg/mL (≈ 0.156 µM) | MIC90 (Prevotella spp.; Prevotella, read-out: MIC90): 0.12 µg/mL (≈ 0.313 µM) | Mode (Prevotella spp.; [4]): 0.06 µg/mL | time-kill kinetics outcome (bactericidal = ≥3 log reduction in CFU per mL) (S. agalactiae ATCC 13813): bactericidal effect at 24 hr at 8×MIC | time-kill kinetics outcome (bactericidal = ≥3 log reduction in CFU per mL) (B. vulgatus ATCC 8482): bactericidal effect at 24 and 48 hr at 4× and 8×MIC

CO[C@H]1/C=C/O[C@@]2(C)Oc3c(C)c(O)c4c(O)c(c5c(nc6cc(C)ccn65)c4c3C2=O)NC(=O)/C(C)=C\C=C\[C@H](C)[C@H](O)[C@@H](C)[C@@H](O)[C@@H](C)[C@H](OC(C)=O)[C@@H]1C [rifaximin]
MIC50 (Veillonella spp.): 4 µg/mL (≈ 5.09 µM) | MIC90 (Veillonella spp.): 8 µg/mL (≈ 10.2 µM) | MIC50 (Veillonella spp.; [3]): 4 µg/mL (≈ 5.09 µM) | MIC90 (Veillonella spp.; [3]): 8 µg/mL (≈ 10.2 µM) | MIC range (Veillonella spp.; [3]): 0.12 to 16 µg/mL | Mode (Veillonella spp.; [3]): 2 µg/mL | Spontaneous Mutation Frequency (Streptococcus spp.): ≥ 2.77×10^−8 | Spontaneous Mutation Frequency (Streptococcus spp.; listed as rifampin): ~10^−8 | MIC ([1]; E. coli MMX 1312, selected on ceftriaxone 4X MIC, Colony A): 3 µg/mL | MIC ([1]; E. coli MMX 1312, selected on ceftriaxone 4X MIC, Colony B): 8 µg/mL | MIC ([1]; E. coli MMX 1312, selected on ceftriaxone 4X MIC, Colony C): 8 µg/mL | MIC ([1]; E. coli MMX 1312, selected on ceftriaxone 8X MIC, Colony A): 3 µg/mL | MIC ([1]; E. coli MMX 1312, selected on ceftriaxone 8X MIC, Colony B): 3 µg/mL | MIC ([1]; E. coli MMX 1312, selected on ceftriaxone 8X MIC, Colony C): 3 µg/mL | MIC ([1]; E. coli MMX 1312 Parent): 8 µg/mL | MIC ([1]; E. coli MMX 1312 Parent (Table 49)): 8 µg/mL | MIC ([1]; E. coli MMX 1312 mutant selected on meropenem 4X MIC, colony A): 8 µg/mL | MIC ([1]; E. coli MMX 1312 mutant selected on meropenem 4X MIC, colony B): 8 µg/mL | MIC ([1]; E. coli MMX 1312 mutant selected on meropenem 4X MIC, colony C): 8 µg/mL | MIC ([1]; E. coli MMX 1312 mutant selected on meropenem 8X MIC, colony A): 8 µg/mL | MIC ([1]; E. coli MMX 1312 mutant selected on meropenem 8X MIC, colony B): 8 µg/mL | MIC ([1]; E. coli MMX 1312 mutant selected on meropenem 8X MIC, colony C): 4 µg/mL | broth microdilution MIC of selected colonies relative to parent strain [1]: several-fold higher | Agar MIC ([2]; S. agalactiae ATCC 13813): 0.25 µg/mL | Agar MIC ([2]; S. pneumoniae ATCC 49619): 0.03 µg/mL | Agar MIC ([2]; S. pyogenes ATCC 49399): 0.12 µg/mL | MIC values (agar dilution) ([2]; over evaluated Streptococcus spp. (range stated jointly with other groups)): 0.03 to 0.5 µg/mL | MIC (S. pyogenes ATCC 49399; S. pyogenes ATCC 49399): 0.12 µg/mL (≈ 0.153 µM) | MIC (S. pyogenes ATCC 49399; broth microdilution): 0.12 µg/mL (≈ 0.153 µM) | MIC50 (Prevotella spp.): 0.12 µg/mL (≈ 0.153 µM) | MIC90 (Prevotella spp.): 1 µg/mL (≈ 1.27 µM) | MIC50 (Prevotella spp.; [4]): 0.12 µg/mL (≈ 0.153 µM) | MIC90 (Prevotella spp.; [4]): 1 µg/mL (≈ 1.27 µM) | MIC range (Prevotella spp.; [4]): 0.03 to 32 µg/mL | Mode (Prevotella spp.; [4]): 0.12 µg/mL | time-kill kinetics outcome (bactericidal = ≥3 log reduction in CFU per mL) (S. agalactiae ATCC 13813): bacteriostatic effect at 4× and 8× the MIC | time-kill kinetics outcome (bactericidal = ≥3 log reduction in CFU per mL) (B. vulgatus ATCC 8482): bactericidal against this organism at 8×MIC at 6 hr; and at 2 and 4×MIC at 6, 24 and 48 hr
